Laboratory results as given in patent publication US20200292528A1, “CELL CHEMOTAXIS ASSAYS” (The General Hospital Corporation, priority 2013, published 2020).

What was measured:
neutrophils [1] = experiment: Microfluidic neutrophil chemotaxis assay, healthy donor whole blood (finger prick, venous) and isolated neutrophils; type: cell-based, human; conditions: for neutrophils recruited from finger prick whole blood (count): average of 16 attractant chambers
Method: Capillary blood (50 μL) was collected by pricking a finger of healthy volunteers. The blood was then pipetted into an eppendorf tube containing a mixed solution of HBSS media, heparin anti-coagulant (1.65 USP/50 μL of blood), and Hoescht stain (10 μL, 32.4 μM). […] Louis, Mo.) or Leukotriene B4 (LTB4) (Caymen Chemicals, Ann Arbor, Mich.) [100 nM] immediately after the PDMS donut-shaped device was bonded to the well plate. The chemoattractant solution also contained fibronectin [25 nM] (Sigma-Aldrich, St. Louis, Mo.) to promote neutrophil surface adhesion. The chemoattractant was pipetted into the whole blood loading chamber (WBLC) and directly around the circumference of the device. […] Afterwards, the central whole-blood loading chamber and the outside region surrounding the donut were washed thoroughly with Phosphate Buffered Saline (PBS) in each well to wash away excess chemoattractant. The wells of the plate were then filled with RPMI 1640 media and allowed to sit for a period of 15 minutes to generate stable chemoattractant gradients. […] Capillary blood (50 μL) was collected by pricking a finger of healthy volunteers. The blood was then pipetted into an eppendorf tube containing a mixed solution of HBSS media, heparin anti-coagulant (1.65 USP/50 μL of blood), and Hoescht stain (10 μL, 32.4 μM). […] For venous blood samples, 10 mL of peripheral blood was drawn from a health volunteer into tubes containing 33 US […] (Vacutainer, Becton Dickinson, Franklin Lakes, N.J.). […] To compare the whole blood results with neutrophil migration from an isolated sample, we also isolated human neutrophils from whole blood using HetaSep followed by the EasySep Human Neutrophil Enrichment Kits (STEMCELL Technologies Inc. Vancouver, Canada) following the manufacturer's protocol. […] Louis, Mo.) at a density of 40,000 cells/μL and kept at 37° C. cell until devices were properly primed. […] Directionality of primed neutrophils was quantified by counting the number of cells that followed the chemotactic gradient and turned at the bifurcation toward the chemoattractant chamber as opposed to the number of cells that exited the device to the peripheral region. Cell velocities were calculated using Image J (NIH) and data analysis with GraphPad Prism. Neutrophil migration toward different attractants (fMLP and LTB4) was also examined. […] The concentrations of the three different chemoattractants were varied from 10 nM to 50 nM to 100 nM. Solutions containing fibronectin [25 nM] and exclusive of fibronection were prepared. Finger prick blood and venous blood were obtained as described above in Example 3.

neutrophils [2] = experiment: Microfluidic neutrophil chemotaxis assay, blood of a burn patient (24% TBSA) over 3 weeks; type: cell-based, human; conditions: for neutrophil accumulation counts versus healthy volunteer: three weeks post-burn
Method: Blood samples of 1 mL were collected from one burn patient suffering from 24% total body surface area (TBSA) burn. Procedures for fabricating the device, preparing the chemoattractant gradient, and performing time-lapse imaging were conducted as explained above with respect to examples 2-4.
Neutrophil chemotaxis was monitored over a 3 week treatment period. FIG. 10A is a plot of neutrophil migration counts in the attractant chamber with no chemoattractant gradient, with fMLP chemoattractant gradient [100 nM], and with LTB4 chemoattractant gradient [100 nM]. FIG. 10B is a plot of velocity [μm/min] of neutrophils migrating to LTB4 compared with fMLP over a three week period. FIG. 10C is a plot of directionality index of neutrophils migrating to LTB4 compared with fMLP. All graphs correspond to average cell counts across 16 attractant chambers.

human neutrophils = experiment: Inter-species microfluidic neutrophil chemotaxis from one droplet of whole blood: human; type: cell-based; conditions: for percentage of neutrophils that migrated: 2 μL whole blood
Method: (§1) The microfluidic device to study mouse, rat and human neutrophil chemotaxis from one droplet of whole blood was designed with three main components: focal chemoattractant chambers (FCCs) (200×200 μm), a central whole-blood loading chamber, and migration channels containing RBC filtering regions. The filter for each migration channel included 10 short channels (Length ˜75 μm) with a 3.5 μm narrowing region (‘pinch’) connected horizontally through an approximately 200-μm-long channel to create 90° bending sections capable of trapping the RBCs to prevent them from dispersing into the rest of the migration channel. All migration channels were designed to be 12 μm wide and 3 μm high to establish only a single column of RBCs for efficient trapping while allowing active mouse, rat and human neutrophils to easily migrate through. The devices were fabricated as described above in Example 2.
(§2) For humans, 50 μL of capillary blood was collected by pricking a finger of healthy volunteers. For mice, 50 μL of capillary blood was collected by the facial vein method (Institutional animal care and use Protocol #2007N000136) requiring no anesthesia. For rats, 50 μL of venous blood was collected from the tail vein (Institutional animal care and use Protocol #2012N000034) using 1-2% Isoflurane inhalant. The blood was then pipetted into an eppendorf tube containing a mixed solution of HBSS media, heparin anti-coagulant (1.65 USP/50 μL of blood), and Hoechst stain (10 μL, 32.4 μM). The eppendorf tube was then incubated for 10 minutes at 37° C. and 5% CO2 to allow for proper staining of the nuclei.
(§3) All reagents and whole blood were pipetted into the device and there was no flow or requirement of external syringe pump. A gradient of the chemoattractant was established along the migration channels by diffusion between the chemoattractant chambers and the central loading chamber. Prior to cell loading and immediately after bonding to the well plate, donut-shaped devices were filled with the chemoattractant solution containing 25 nM of fibronectin (Sigma-Aldrich, St. Louis, Mo.). The well plate was then placed in a desiccator under vacuum to de-gas for 15 minutes to ensure proper filling of the chambers while the PDMS surface was still hydrophilic. Afterwards, the central whole-blood loading chamber and the outside region surrounding the donut were washed thoroughly in each well to establish the gradient along the migration channels. The wells of the plate were then filled with RPMI 1640 media and allowed to sit for a period of 15 minutes to generate stable chemoattractant gradients. Finally, using a gel-lading tip, 2 μL of whole blood was slowly pipetted into the central whole-blood loading chamber.
(§4) Time-lapse imaging was performed on a Nikon Eclipse Ti microscope with 10-15× magnification and a biochamber heated to 37° C. with 5% CO2 and 80% humidity. […] For each experiment, at least 50 neutrophils were manually tracked. Directionality of primed neutrophils was quantified by counting the number of cells that followed the chemotactic gradient and turned at the bifurcation toward the chemoattractant chamber as opposed to the number of cells that exited the device to the peripheral region. Cell velocities were calculated using ImageJ (NIH). Total percentage of neutrophils to migrate was estimated using a COMSOL simulation model that estimated that 30.6% of area in whole blood loading chamber from which neutrophils could migrate in experimental time to be above critical gradient concentration. For an average human experiment, this would estimate ˜277 neutrophils per well that are exposed to chemoattractant gradient.

Wistar rat neutrophils = experiment: Inter-species microfluidic neutrophil chemotaxis from one droplet of whole blood: Wistar rat; type: cell-based; conditions: for percentage of neutrophils that migrated: Wistar rat whole blood
Method: as §1, §2
All reagents and whole blood were pipetted into the device and there was no flow or requirement of external syringe pump. A gradient of the chemoattractant was established along the migration channels by diffusion between the chemoattractant chambers and the central loading chamber. Prior to cell loading and immediately after bonding to the well plate, donut-shaped devices were filled with the chemoattractant solution containing 25 nM of fibronectin (Sigma-Aldrich, St. Louis, Mo.). The well plate was then placed in a desiccator under vacuum to de-gas for 15 minutes to ensure proper filling of the chambers while the PDMS surface was still hydrophilic. […]
Time-lapse imaging was performed on a Nikon Eclipse Ti microscope with 10-15× magnification and a biochamber heated to 37° C. with 5% CO2 and 80% humidity. […] Directionality of primed neutrophils was quantified by counting the number of cells that followed the chemotactic gradient and turned at the bifurcation toward the chemoattractant chamber as opposed to the number of cells that exited the device to the peripheral region. Cell velocities were calculated using ImageJ (NIH). […]

mouse neutrophils = experiment: Inter-species microfluidic neutrophil chemotaxis from one droplet of whole blood: C57BL/6 and Sv129S6 mice; type: cell-based; conditions: for directionality of Sv129S6 mouse neutrophils compared with humans: Sv129S6 mouse versus human
Method: as §1, §2, §3, §4

[3] = 1 week after burn, 100 nM gradient, versus healthy volunteer

For CCCCC/C=C\C[C@@H](O)/C=C/C=C/C=C\[C@@H](O)CCCC(=O)O [LTB4, Leukotriene B4], the “neutrophils recruited from finger prick whole blood (count)” value (neutrophils [1]; 100 nM gradient, after 200 min) was 39±12 cells/device, the neutrophil velocity (neutrophils [1]; finger prick whole blood) was 20±7 μm/min and the “neutrophil accumulation counts versus healthy volunteer” value (neutrophils [2]) was “in the normal range”. For the same molecule, the “reduction in neutrophil velocity” value (neutrophils [2]; two weeks post-burn) was 40%, the “percentage of neutrophils that migrated” value (human neutrophils) was 54.0±5.6% and the “percentage of neutrophils that migrated” value (Wistar rat neutrophils) was 2.8±1.1%. For the same molecule, the “percentage of neutrophils that migrated” value (mouse neutrophils; C57BL/6 mouse whole blood) was 52.7±24%, the “directionality of Sv129S6 mouse neutrophils compared with humans” value (mouse neutrophils) was “comparable” and the “percentage of neutrophils that migrated” value (mouse neutrophils; Sv129S6 mouse whole blood) was 99.5±13%.

For fibronectin, the “effect of inclusion in the chemoattractant solution on final neutrophil counts migrating towards fMLP” value (neutrophils [1]; 25 nM, pin prick and venous blood) was “does not appear to change final neutrophil counts”.

With CSCC[C@H](NC=O)C(=O)N[C@@H](CC(C)C)C(=O)N[C@@H](Cc1ccccc1)C(=O)O [fMLP, N-formyl-methionyl-leucyl-phenylalanine] the “neutrophils recruited from finger prick whole blood (count)” value (neutrophils [1]; 100 nM gradient, after 200 min) was 86±7 cells/device, the neutrophil accumulation numbers (neutrophils [1]; 100 nM gradient, after 3.5 hours, venous, finger prick and isolated neutrophil sources) was “around 135±20 cells/device” and the “average neutrophil migration counts in 6 separate devices” value (neutrophils [1]; 100 nM gradient, finger prick whole blood of one healthy donor, after 200 min) was 83±12 cells. For the same molecule, the “neutrophil migration counts per chamber, average of healthy donors” value (neutrophils [1]; 100 nM gradient, finger prick whole blood, after 200 min, 5 out of 7 donors clustered around it) was 92±35 cells, the “time until neutrophils began migrating towards the gradient” value (neutrophils [1]; 100 nM gradient, venous and finger prick whole blood and isolated neutrophils) was no more than 20 min and the “neutrophil count recruited relative to LTB4” value (neutrophils [1]; 100 nM gradients, finger prick whole blood, 200 min) was “two-fold higher count”. For the same molecule, the neutrophil velocity (neutrophils [1]; finger prick whole blood) was 19 ±6 μm/min, the reduction in directionality (neutrophils [2]; [3]) was 50% and the “reduction in neutrophil velocity” value (neutrophils [2]; [3]) was 75%. For the same molecule, the “neutrophil accumulation counts versus healthy volunteer” value (neutrophils [2]) was “lower than the average healthy volunteer count”, the “number of cells accumulating, above the normal healthy volunteer range” value (neutrophils [2]; two weeks post burn, patient had fever) was 15% and the “reduction in neutrophil velocity” value (neutrophils [2]; two weeks post-burn) was 60%. For the same molecule, the “directional index of neutrophils” value (human neutrophils) was 0.85±0.06, the “velocity of neutrophils towards the chemoattractant” value (human neutrophils) was 23.4±5.4 μm/min and the “percentage of neutrophils that migrated” value (human neutrophils) was 55.8±19.8%. The “percentage of neutrophils that migrated” value (Wistar rat neutrophils) was 10.9±8.5%, the “directional index of neutrophils” value (Wistar rat neutrophils; rat) was 0.62±0.12 and the “velocity of neutrophils towards the chemoattractant” value (Wistar rat neutrophils; rat) was 26.2±5.9 μm/min. For the same molecule, the “directional index of neutrophils” value (mouse neutrophils; C57BL/6 mouse) was 0.61±0.07, the “velocity of neutrophils towards the chemoattractant” value (mouse neutrophils; C57BL/6 mouse) was 13±7.4 μm/min and the “velocity of C57BL/6 neutrophils, fold lower than Sv129S6, rat or human” value (mouse neutrophils; C57BL/6 mouse versus Sv129S6, rat, human) was roughly 2.5 fold. For the same molecule, the “directional index of neutrophils” value (mouse neutrophils; Sv129S6 mouse) was 0.82±0.06 and the “velocity of neutrophils towards the chemoattractant” value (mouse neutrophils; Sv129S6 mouse) was 19.7±8.7 μm/min.

B1: C5a: the protein fragment C5a, neutrophil attractant (protein, UniProt P01031 678-751, looked up)
C5a anaphylatoxin: TLQKKIEEIAAKYKHSVVKKCCYDGACVNNDETCEQRAARISLGPRCIKAFTECCVVASQLRANISHKDMQLGR
modifications: C5a anaphylatoxin
notes: the protein fragment C5a, neutrophil attractant
For B1, the “percentage of neutrophils activated” value (human neutrophils) was 63.3±7.6%, the “percentage of neutrophils that migrated in response to the chemoattractant in the FCC” value (human neutrophils) was 26.8±5.9% and the “percentage of neutrophils activated” value (mouse neutrophils; Sv129S6 mouse) was 18.3±3%. The “directionality of Sv129S6 mouse neutrophils compared with humans” value (mouse neutrophils) was “lower than in humans”, the “migration pattern of activated mouse neutrophils” value (mouse neutrophils; mouse) was “random migration” and the “percentage of neutrophils that migrated in response to the chemoattractant in the FCC” value (mouse neutrophils; mouse (Sv129S6)) was 1±0.8%.
